Values after ≈ are worked out from the molar mass of the structure shown.
Experiments:
physchem = format: physicochemical
Source text: In fact, according to a preferred embodiment, the at least one surfactant is a blend of surfactants, more preferably a blend of sodium lauryl sulfate and polysorbate 80 (Tween 80). In a particularly preferred embodiment, the pharmaceutically acceptable additives further comprise at least one solubilizer. Preferably the solubilizer is povidone.

[1] = Accelerated stability of capsules, HPLC potency and impurities; format: physicochemical; conditions: Initial
Protocol: The accelerated stability of the capsules of Examples 1 and 2 was studied. The capsules were packaged in HDPE bottles and stored at 40° C./75% RH and under ICH option 2 light condition. The samples were assayed by HPLC for potency and impurities and by dissolution apparatus. […] No change in dissolution was also observed under all conditions.

solubility in aqueous medium at gastrointestinal pHs (physchem): insoluble | solubility (physchem; Solubility): 20 µg/mL (≈ 44.8 µM) | Impurity (%) RRT: 1.06 [1]: <0.05% | Impurity (%) RRT: 1.45 [1]: 0.13% | Impurity (%) RRT: 1.79 [1]: 0.05% | Impurity (%) RRT: 1.84 [1]: 0.07% | Strength (%) [1]: 99.2%
SMILES: CNC(=O)c1c(-c2ccc(F)cc2)oc2cc(N(CCO)S(C)(=O)=O)c(C3CC3)cc12
